Values quoted from earlier work in patent US20100248978A1, “METHOD FOR IDENTIFYING THE INTERACTION PARTNER OF AN ACTIVE AGENT” (Bayer Cropscience AG, priority 2007, published 2010).

Target: T1, p-hydroxyphenylpyruvate dioxygenase (HPPD) (Arabidopsis thaliana, UniProt P93836)
T1 sequence (P93836 1-445): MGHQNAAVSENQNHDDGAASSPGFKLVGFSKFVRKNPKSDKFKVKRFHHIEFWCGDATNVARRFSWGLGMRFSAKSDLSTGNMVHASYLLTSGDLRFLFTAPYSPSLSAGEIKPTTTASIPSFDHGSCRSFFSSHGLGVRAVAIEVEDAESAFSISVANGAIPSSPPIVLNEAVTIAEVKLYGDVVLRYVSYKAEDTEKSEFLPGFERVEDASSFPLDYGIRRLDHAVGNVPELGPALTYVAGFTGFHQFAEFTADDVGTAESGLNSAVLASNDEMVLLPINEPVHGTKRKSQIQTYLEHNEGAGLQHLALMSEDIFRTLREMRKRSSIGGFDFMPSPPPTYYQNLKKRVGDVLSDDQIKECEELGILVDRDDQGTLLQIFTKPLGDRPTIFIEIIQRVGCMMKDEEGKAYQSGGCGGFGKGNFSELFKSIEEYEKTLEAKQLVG

For CS(=O)(=O)c1ccc(C(=O)C2C(=O)CCCC2=O)c(Cl)c1 [sulcotrione], the “inhibition of HPPD” value is listed as “inhibits”.
